Tested on: BMP4-directed C3H10T1/2
Assay: Artemisinin and analogues on BMP4-directed C3H10T1/2 (morphology, Western blot)
Type: cell-based
Conditions: for cell morphology of C3H10T1/2: concentration shown in FIG. 8, from Day 0 of differentiation, vs control
Procedure: 4.3.1 Culture and Differentiation of C3H10T1/2 According to Method 2.4.1.
Artemisinin, artesunate and dihydroartemisinin were stored in DMSO at a storage concentration of 10 mMol/L. The concentration shown in FIG. 8 was added on Day 0 of differentiation. Fresh medium was replaced every two days, and the corresponding concentrations of compounds were added until the cells differentiated to mature.
The method for extracting C3H10T1/2 cell total protein was the same as 2.4.3;
Western blot method and catalog number of antibody was the same as 2.4.4.

SMILES	cell morphology of C3H10T1/2	expression of brown fat-related genes (C3H10T1/2)	expression level of UCP1 (dihydroartemisinin 1, 2.5, 5, 7.5 Mol/L, Western blot)	expression level of PGC1α (dihydroartemisinin, Western blot)
C[C@H]1[C@H](OC(=O)CCC(=O)O)O[C@@H]2O[C@@]3(C)CC[C@H]4[C@H](C)CC[C@@H]1[C@@]24OO3 [artesunate]	exhibited similar morphological characteristics	–	–	–
C[C@H]1[C@@H](O)O[C@@H]2O[C@@]3(C)CC[C@H]4[C@H](C)CC[C@@H]1[C@@]24OO3 [dihydroartemisinin]	exhibited similar morphological characteristics	up-regulated	gradually increase with the increase of the concentration of dihydroartemisinin	gradually increase with the increase of the concentration of dihydroartemisinin
C[C@@H]1CC[C@H]2[C@@H](C)C(=O)O[C@@H]3O[C@@]4(C)CC[C@@H]1[C@]32OO4 [artemisinin]	exhibited similar morphological characteristics	–	–	–
